Assay: Inhibition of influenza A virus chicken/Nakorn-Patom/Thailand/CU-K2-2004 Neuraminidase N1 at pH 7.4 by DIANA assay

| SMILES | Ki [µM] |
| --- | --- |
| CCC(CC)O[C@@H]1C=C(C(=O)O)C[C@H](n2cc(CNc3ccc(NC(C)=O)cc3)nn2)[C@H]1NC(C)=O | 5.6 |
| CCC(CC)O[C@@H]1C=C(C(=O)O)C[C@H](n2cc(CN(C)c3ccc(OC)cc3)nn2)[C@H]1NC(C)=O | 8.1 |
| CCC(CC)O[C@@H]1C=C(C(=O)O)C[C@H](n2cc(-c3ccsc3)nn2)[C@H]1NC(C)=O | 4 |
| CCC(CC)O[C@@H]1C=C(C(=O)O)C[C@H](NCc2cn(CC(=O)NC)nn2)[C@H]1NC(C)=O | 0.74 |
| CCC(CC)O[C@@H]1C=C(C(=O)O)C[C@H](n2cc(C[C@@]3(C(=O)O)CCCN3)nn2)[C@H]1NC(C)=O | 49 |
| CCC(CC)O[C@@H]1C=C(C(=O)O)C[C@H](n2cc(CNc3cccc(C(F)(F)F)c3)nn2)[C@H]1NC(C)=O | 1.9 |
| CCC(CC)O[C@@H]1C=C(C(=O)O)C[C@H](n2cc(CNc3ccc(C(N)=O)c(C(F)(F)F)c3)nn2)[C@H]1NC(C)=O | 5 |
| CCC(CC)O[C@@H]1C=C(C(=O)O)C[C@H](NCc2cn(CC(=O)N(C)C)nn2)[C@H]1NC(C)=O | 3.1 |
| CCC(CC)O[C@H]1CC(C(=O)O)=C[C@@H](n2cc(CN3CCS(=O)(=O)CC3)nn2)[C@@H]1NC(C)=O | 94 |
| CCC(CC)O[C@@H]1C=C(C(=O)O)C[C@H](n2cc(CO)nn2)[C@H]1NC(C)=O | 5.3 |
| CCC(CC)O[C@@H]1C=C(C(=O)O)C[C@H](NCc2cn(CCO)nn2)[C@H]1NC(C)=O | 0.47 |
| CCC(CC)O[C@@H]1C=C(C(=O)O)C[C@H](n2cc(COCC(C)(CO)CO)nn2)[C@H]1NC(C)=O | 49 |
| CCC(CC)O[C@@H]1C=C(C(=O)O)C[C@H](n2cc(CNc3cc(F)ccc3OC)nn2)[C@H]1NC(C)=O | 11 |
| CCC(CC)O[C@@H]1C=C(C(=O)O)C[C@H](n2cc(CNc3ccccc3C(N)=O)nn2)[C@H]1NC(C)=O | 5.1 |
| CCC(CC)O[C@@H]1C=C(C(=O)O)C[C@H](n2cc(CNc3ccccc3)nn2)[C@H]1NC(C)=O | 5 |
| CCC(CC)O[C@@H]1C=C(C(=O)O)C[C@H](n2cc(-c3cccs3)nn2)[C@H]1NC(C)=O | 7.1 |
| CCC(CC)O[C@@H]1C=C(C(=O)O)C[C@H](NCc2cn(CC(=O)O)nn2)[C@H]1NC(C)=O | 4.3 |
| CCC(CC)O[C@@H]1C=C(C(=O)O)C[C@H](n2cc(C[C@H](N)C(=O)O)nn2)[C@H]1NC(C)=O | 25 |
| CCC(CC)O[C@@H]1C=C(C(=O)O)C[C@H](NCc2cn(CCN3CCS(=O)(=O)CC3)nn2)[C@H]1NC(C)=O | 6.2 |
| CCC(CC)O[C@@H]1C=C(C(=O)O)C[C@H](NCc2cn(CC(C)(CO)CO)nn2)[C@H]1NC(C)=O | 0.71 |
